# Measured values published in ChEMBL document CHEMBL4118223, “New TRAP1 and Hsp90 chaperone inhibitors with cationic components: Preliminary studies on mitochondrial targeting” (Bioorg Med Chem Lett, 2018).
# The source made the active and inactive calls. The rule behind the calls is not given here.
# Tests used:
# [1] = Drug uptake in cytosol of human HCT116 cells at 1 uM after 12 hrs by mass spectrometric analysis; format: ADME, subcellular, HCT-116
# [2] = target: T1, Heat shock protein 75 kDa, mitochondrial (Homo sapiens, UniProt Q12931)
# T1 sequence (Q12931 whole entry): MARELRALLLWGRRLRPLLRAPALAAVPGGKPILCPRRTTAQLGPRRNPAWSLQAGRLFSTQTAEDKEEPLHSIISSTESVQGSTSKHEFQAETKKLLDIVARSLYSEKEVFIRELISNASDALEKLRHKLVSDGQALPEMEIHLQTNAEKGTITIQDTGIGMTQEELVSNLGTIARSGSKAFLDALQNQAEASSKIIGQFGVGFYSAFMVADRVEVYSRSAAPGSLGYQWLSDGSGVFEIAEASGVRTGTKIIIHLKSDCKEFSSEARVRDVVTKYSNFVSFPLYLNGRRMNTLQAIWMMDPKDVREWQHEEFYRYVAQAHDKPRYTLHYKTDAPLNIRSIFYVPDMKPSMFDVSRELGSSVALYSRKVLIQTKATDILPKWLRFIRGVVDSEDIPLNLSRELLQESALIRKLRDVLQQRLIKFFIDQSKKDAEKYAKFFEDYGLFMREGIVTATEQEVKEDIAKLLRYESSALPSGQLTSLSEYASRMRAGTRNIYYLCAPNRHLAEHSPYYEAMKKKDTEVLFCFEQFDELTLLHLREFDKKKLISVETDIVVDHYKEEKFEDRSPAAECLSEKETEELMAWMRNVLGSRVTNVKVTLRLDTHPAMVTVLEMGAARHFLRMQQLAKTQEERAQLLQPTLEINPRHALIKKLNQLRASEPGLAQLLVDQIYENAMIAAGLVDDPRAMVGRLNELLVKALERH
# Description: Inhibition of recombinant human N-terminal His6-tagged TRAP1 (60 to 704 residues) ATPase activity expressed in Escherichia coli BL21-CodonPlus-RIL after overnight incubation by BioMol green dye-based assay
# [3] = tested on: HCT-116; assay: Antiproliferative activity against human HCT116 cells after 24 hrs by MTT assay; format: functional, cell-based; conditions: HCT-116, 24 h
# [4] = Drug uptake in mitochondria of human HCT116 cells at 1 uM after 12 hrs by mass spectrometric analysis; format: ADME; conditions: hct-116, 12 h
# [5] = tested on: HCT-116; assay: Induction of apoptosis in human HCT116 cells at 0.1 to 10 uM after 24 hrs by FITC/Annexin-V/7-AAD staining-based FACS analysis; format: functional, cell-based
# [6] = tested on: HCT-116; assay: Induction of apoptosis in human HCT116 cells at 1 to 10 uM after 24 hrs by FITC/Annexin-V/7-AAD staining-based FACS analysis; format: functional, cell-based
# [7] = target: Heat shock protein HSP 90-alpha (Homo sapiens, UniProt P07900); assay: Inhibition of FITC-geldanamycin binding to recombinant human HSP90alpha expressed in Escherichia coli by fluorescence anisotropy method
# [8] = tested on: HCT-116; assay: Induction of apoptosis in human HCT116 cells at 10 uM after 24 hrs by FITC/Annexin-V/7-AAD staining-based FACS analysis; format: functional, cell-based
compound,measurement,setting,value
CCNC(=O)c1noc(-c2cc(C(C)C)c(O)cc2O)c1NC(=O)CCCCC(=O)NCCCNCCNCCCN,Drug uptake,[1],Not Active
same,IC50,[2],5 µM
same,IC50,[3],26.7 µM
same,Drug uptake,[4],Active
same,Activity,[5],Active
CCNC(=O)c1noc(-c2cc(C(C)C)c(O)cc2O)c1NC(=O)c1ccc(C(=O)NC(=N)N)cc1,Activity,[6],Active
same,Drug uptake,[1],Not Active
same,IC50,[7],0.021 µM
same,Kd,[7],0.0015 µM
same,IC50,[3],1.32 µM
same,Drug uptake,[4],Active
CCNC(=O)c1noc(-c2cc(C(C)C)c(O)cc2O)c1NC(=O)c1ccc(OC)cc1,IC50,[2],0.4 µM
same,IC50,[3],0.87 µM
same,Drug uptake,[4],Not Active
same,Activity,[5],Active
CCNC(=O)c1noc(-c2cc(C(C)C)c(O)cc2O)c1NC(=O)CCCCC[n+]1ccccc1.[Br-],Activity,[8],Active
same,Drug uptake,[1],Not Active
same,IC50,[2],10 µM
same,IC50,[3],7.86 µM
CCNC(=O)c1noc(-c2cc(C(C)C)c(O)cc2O)c1NC(=O)CCN1CCOCC1,IC50,[2],20 µM
CCNC(=O)c1noc(-c2cc(C(C)C)c(O)cc2O)c1NC(=O)CCCCCCc1ccc(C(=O)NC(=N)N)cc1,Drug uptake,[1],Not Active
same,IC50,[2],3 µM
same,IC50,[3],6.17 µM
same,Drug uptake,[4],Active
COc1cccc(-c2cc(F)ccc2[C@H]2Cc3nc(N)nc(C)c3C(=O)N2)n1,IC50,[2],0.2 µM
same,Drug uptake,[4],Not Active
same,Activity,[5],Active
CCNC(=O)c1noc(-c2cc(C(C)C)c(O)cc2O)c1NC(=O)CCCCC[P+](c1ccccc1)(c1ccccc1)c1ccccc1.[Br-],Activity,[8],Active
same,Drug uptake,[1],Not Active
same,IC50,[2],25 µM
same,IC50,[3],5.12 µM
same,Drug uptake,[4],Active
